The assay has as its target T1, SP_0166 (Streptococcus pneumoniae, UniProt A0A0H2UNA7).
T1 construct: full length, 368 residues, 42,757 Da; pET-28a(+) BamHI/XhoI, C-terminal 6xHis tag kept; expressed in E. coli BL21(DE3)
Put plainly: LC-MS/MS of agmatine formed from arginine. The assay is classed as biochemical.

Read-outs that look alike come from different tables or passages of the source.

What is called IC50 is the concentration at which inhibition is half-maximal.

T1 sequence (A0A0H2UNA7 entry or part of it): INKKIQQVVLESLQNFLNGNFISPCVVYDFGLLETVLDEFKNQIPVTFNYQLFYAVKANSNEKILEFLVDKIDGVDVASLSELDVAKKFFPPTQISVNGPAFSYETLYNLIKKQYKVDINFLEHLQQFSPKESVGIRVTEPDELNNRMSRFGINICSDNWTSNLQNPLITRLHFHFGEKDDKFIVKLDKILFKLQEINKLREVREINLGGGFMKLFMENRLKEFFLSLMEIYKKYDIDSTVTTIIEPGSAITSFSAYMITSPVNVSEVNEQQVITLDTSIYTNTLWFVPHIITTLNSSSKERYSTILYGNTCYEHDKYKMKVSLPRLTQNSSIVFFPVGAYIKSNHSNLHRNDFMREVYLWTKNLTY

In the case of `NCCCC(N)(C(=O)O)C(F)F` (centres unmarked) [DFMO], where the note is “read-out: DFMO IC50”, the IC50 came out at 27 ± 4.5 mM.
As for `N=C(N)NCCCC(N)(C(=O)O)C(F)F` (centres unmarked) [DFMA], the IC50 (read-out: DFMA IC50) stood at 0.0216 ± 0.0104 mM.

The record behind these values is PMC11048482 (Biomolecules, 2024).
